Converted amounts (≈) assume the structure as drawn.
Experiments:
thermodynamic solubility = format: physicochemical; conditions: thermodynamic from solid
permeability (Papp) = format: in vitro ADME; conditions: not told
[1] = test system: rat airway epithelial cell line L2; test: Cellular stability in L2 cells; format: in vitro ADME; conditions: 100 nM compound
Experimental: Cellular Stability of Compounds
The cellular stability of compounds in vitro was tested using rat airway epithelial cell line L2 and rat alveolar macrophage line NR8383 (ATCC©CRL-2192™). Assays were performed in replicate and the data expressed as mean ± s.e. mean. L2 cells were cultured to confluence in T25 flasks or 24 -well plates using Kaighn’s modification of Ham’s F12 medium (F12K). Cells were prepared for assay by washing 3 times with serum-free F12K. NR8383 Airway macrophages were grown in suspension culture in F12K, collected by centrifugation, washed in serum-free medium and aliquoted into test plates (1.4 x 10^6 cells/well). Both cell lines were treated with ADI compounds (100 nM) in serum -free F12K in a 5% CO 2 environment at 37 °C. Samples were removed for quantitative analysis by LC -MS-MS using appropriate multiple reaction monitoring transitions for each analyte. […]
n-Octanol (0.7 mL), pre -saturated with 10 mM PBS, pH7.4, was added to test compound (~1 mg) in a 2 mL HPLC vial followed by PBS (0. 7 mL), which had been pre -saturated with n -octanol. The mixture was shaken for 90 min before centrifugation for 10 min at 4,000 rpm. The upper organic layer (0.2 mL) and the aqueous layer (0.5 mL) were removed for analysis by LC-MS. Peak identity was confirmed by mass spectrometry and concentration assessed spectrophotometrically using a diode array detector. The log

plasma stability (rat) = format: in vitro ADME
plasma stability (human) = format: in vitro ADME
[2] = Plasma protein binding (human); format: in vitro ADME
Experimental: Plasma Protein Binding Assay
Plasma protein binding (PPB) was determined using Rapid Equilibrium Dialysis chambers with 8 kDa cut-off inserts (Fisher Scientific UK Ltd, Leicestershire, UK). Rat (Sprague Dawley strain) plasma EDTA K2 (pooled, mixed sex, SeraLab, West Sussex, UK) was centrifuged (13,000 x g, 10 min) to remove precipitates before addition of compounds (initial concentration 5 µM). Concentrations were determined by liquid chromatography-tandem mass spectrometry (LC-MS-MS) (AB Sciex 3200 QTrap) after 4 h incubation at 37 °C with binding being calculated from the concentration of compound in each chamber. Assays were performed in replicate and the data expressed as mean ± s.e.
Cellular Stability of Compounds […]
Kaighn’s modification of Ham’s F12 medium (F12K). Cells were prepared for assay by washing 3 times with serum-free F12K. NR8383 Airway macrophages were grown in suspension culture in F12K, collected by centrifugation, washed in serum-free medium and aliquoted into test plates (1.4 x 10^6 cells/well). Both cell lines were treated with ADI compounds (100 nM) in serum -free F12K in a 5% CO 2 environment at 37 […]
n-Octanol (0.7 mL), pre -saturated with 10 mM PBS, pH7.4, was added to test compound (~1 mg) in a 2 mL HPLC vial followed by PBS (0. 7 mL), which had been pre -saturated with n -octanol. […]

[3] = hepatocyte stability (rat); format: in vitro ADME; conditions: hepatocytes
[4] = hepatocyte stability (human); format: in vitro ADME; conditions: hepatocytes
[5] = test system: rats sensitized to the HDM allergen extract; test: HDM extract challenge in rats sensitized to the HDM allergen extract (BAL cells and mediators); format: in vivo, BN rats
Source text: Control animals received saline vehicle treatment.

unsensitized BN rats = test: HDM extract challenge in unsensitized (naive) BN rats, duration of protection; format: in vivo
[6] = read-out: hepatocyte intrinsic clearance
[7] = HDM 1, dosed 2 or 4 h before challenge, BAL 48 h
[8] = HDM 10, single i.t. aerosol dose 2 h before (15 μg/kg compound 1, 46 μg/kg compound 2), BAL 48 h
[9] = stronger challenge HDM 10, 15 μg/kg i.t. aerosol 2 h prior
[10] = HDM-naive rats, 15 μg/kg i.t. aerosol 2 h prior to HDM 10, BAL 48 h
[11] = single i.t. dose (15 μg/kg compound 1, 46 μg/kg compound 2), BAL 48 h

CC(C)[C@H](NC(=O)[C@H](C)NC(=O)[C@@H](NC(=O)c1ccccc1)C(C)(C)C)C(=O)C(=O)NCc1ccccc1 [Compound 1, N-{(S)-1-[(S)-1-((S)-1-benzylaminooxalyl-2-methyl-propylcarbamoyl)-ethylcarbamoyl]-2,2-dimethyl-propyl}-benzamide]
solubility thermodynamic (thermodynamic solubility): 84 µM (≈ 43.9 µg/mL) | Papp (permeability (Papp)): 6.2 ×10⁻⁶ cm/s | cell stability [1]: 100; 100 | remaining at 2 h (plasma stability (rat)): 100% | remaining at 2 h (plasma stability (human)): 100% | fraction unbound at 4 h, 5 µM [2]: 0.004 | half-life [3]: 1.97 h | CLint scaled [3, 6]: 28.2 mL/min/kg | half-life [4]: 3.02 h | CLint scaled [4, 6]: 11.7 mL/min/kg | BAL eosinophil responses ([5]; HDM 1 (1 μg Der p 1), dosed i.t. aerosol 2 or 4 h before challenge, BAL 48 h): suppressed | BAL neutrophil recruitment [5, 7]: No effect | CCL-2 in BAL fluid [5, 7]: suppressed | CCL-20 in BAL fluid [5, 7]: suppressed | IL-13 in BAL fluid [5, 7]: suppressed | IL-33 in BAL fluid [5, 7]: suppressed | TSLP in BAL fluid ([5]; HDM 1, dosed 2 h before challenge, BAL 48 h): suppressed | TSLP in BAL fluid ([5]; HDM 1, dosed 4 h before challenge, BAL 48 h, 'except' = not suppressed): except for TSLP | changes in BAL cells after HDM challenge ([5]; HDM 10 (10 μg Der p 1) i.t. aerosol, single i.t. aerosol dose 2 h before (15 μg/kg compound 1, 46 μg/kg compound 2), BAL 48 h): attenuated | BAL eosinophils after HDM challenge [5, 8]: eosinophil suppression | BAL monocytes/macrophages after HDM challenge [5, 8]: No effects | BAL neutrophil responses after HDM challenge [5, 8]: not significant | IL-6 responses in BAL [5, 9]: unaffected | IL-13 in BAL [5, 9]: inhibitory effects | IL-33 in BAL [5, 9]: inhibitory effects | TSLP in BAL [5, 9]: inhibitory effects | neutrophil response (unsensitized BN rats; BAL performed 24 h after HDM extract challenge, dosed 2 h prior): clear inhibition | BAL monocyte/macrophage numbers (unsensitized BN rats; [10]): suppressed | BAL neutrophil numbers (unsensitized BN rats; [10]): suppressed | cellularity of BAL fluid (unsensitized BN rats; [10]): suppressed | inhibition at 0.015 mg/kg (unsensitized BN rats; Rattus norvegicus, Eosinophil, inhaled or nasal, 48 h, read-out: inhibition of eosinophil response at peak): > 60% | onset: temporal separation between drug dosing and HDM challenge required to achieve 50% inhibition of the eosinophil response (unsensitized BN rats; estimated, Figure 5D–F, in words): faster in onset | performance in vivo (maximum inhibition of the eosinophil response, Figure 5A) (unsensitized BN rats; focused library, durability of inhibition studies): performed well | effects on BAL neutrophils (unsensitized BN rats; intervening pretreatment intervals, BAL 48 h): insignificant | inhibition of BAL monocytes/macrophages (significance) (unsensitized BN rats; pretreatment 60 min, 15 μg/kg i.t., BAL 48 h): significant | effects on BAL neutrophils (unsensitized BN rats; short or long pretreatment intervals, BAL 48 h): inhibitory | effect on BAL monocytes/macrophages (unsensitized BN rats; shorter pretreatment times, BAL 48 h): modest inhibition | effect on eosinophils with 6–8 h separation of dose and challenge (unsensitized BN rats; [11]): substantial inhibition | time of administration before challenge giving peak effects on eosinophils (unsensitized BN rats; [11]): 2 h
